Here are results for one molecule from ChEMBL document CHEMBL1152078, “An efficient preparation of the potent and selective pseudopeptide thrombin inhibitor, inogatran” (Bioorg Med Chem Lett, 1997).

A short description of data set [1]: The compound was evaluated for bioavailability in rats; 32-51. To be noted: rat, in vivo; read-out: Bioavailabiility. Type of data set: ADME, organism-based.
Data set [2] is described as follows: The compound was evaluated for bioavailability in dogs; 34-44. Type of data set: ADME, organism-based, Canis lupus familiaris. To be noted: dog, in vivo; read-out: Bioavailabiility.

Each structure is given as a SMILES string.

As to `Cl.Cl.N=C(N)NCCCNC(=O)[C@@H]1CCCCN1C(=O)[C@@H](CC1CCCCC1)NCC(=O)O`, the bioavailability in data set [1] is 51%; in data set [2] it was 44%.
